3 compounds from ChEMBL document CHEMBL1201862, “PubChem BioAssay data set” (2004) can be followed below.

The source made the active and inactive calls. Some results are limits rather than exact numbers.

Assay [1] has as its target T1, Peroxisome proliferator-activated receptor gamma (Homo sapiens, UniProt P37231). The assay can be described thus: PPARg transcriptional activation, reporter cells – cell-based, luminescence, assay provider, dose response (AID 504447). Type of assay: functional.
Assay [2] has as its target T1, Peroxisome proliferator-activated receptor gamma. As to the kind of experiment: competitive ligand displacement at PPARg – biochemical, TR-FRET, LanthaScreen, PPARg partial agonist project, dose response (AID 504446). A general note: TR-FRET usually uses a lanthanide donor and a delayed reading to cut background.
Assay [3] addresses Peroxisome proliferator-activated receptor alpha (Homo sapiens, UniProt Q07869). As to the kind of experiment: Late stage assay provider counterscreen for partial agonists of the peroxisome proliferator-activated receptor gamma (PPARg): Luminescence-based cell-based dose response assay for partial agonists of the peroxisome proliferator-activated receptor alpha (PPARA). [Related pubchem assays (depositor defined):AID1051, AID1300, AID1319, AID1679, AID1808, AID504446, AID504447, AID504452, AID504453, AID631]. Type of assay: functional. On the technique in general: Counterscreens check selectivity or assay interference.

In another assay the target is T2, Hexokinase HKDC1 (Homo sapiens, UniProt Q2TB90).
T2 sequence (Q2TB90 whole entry): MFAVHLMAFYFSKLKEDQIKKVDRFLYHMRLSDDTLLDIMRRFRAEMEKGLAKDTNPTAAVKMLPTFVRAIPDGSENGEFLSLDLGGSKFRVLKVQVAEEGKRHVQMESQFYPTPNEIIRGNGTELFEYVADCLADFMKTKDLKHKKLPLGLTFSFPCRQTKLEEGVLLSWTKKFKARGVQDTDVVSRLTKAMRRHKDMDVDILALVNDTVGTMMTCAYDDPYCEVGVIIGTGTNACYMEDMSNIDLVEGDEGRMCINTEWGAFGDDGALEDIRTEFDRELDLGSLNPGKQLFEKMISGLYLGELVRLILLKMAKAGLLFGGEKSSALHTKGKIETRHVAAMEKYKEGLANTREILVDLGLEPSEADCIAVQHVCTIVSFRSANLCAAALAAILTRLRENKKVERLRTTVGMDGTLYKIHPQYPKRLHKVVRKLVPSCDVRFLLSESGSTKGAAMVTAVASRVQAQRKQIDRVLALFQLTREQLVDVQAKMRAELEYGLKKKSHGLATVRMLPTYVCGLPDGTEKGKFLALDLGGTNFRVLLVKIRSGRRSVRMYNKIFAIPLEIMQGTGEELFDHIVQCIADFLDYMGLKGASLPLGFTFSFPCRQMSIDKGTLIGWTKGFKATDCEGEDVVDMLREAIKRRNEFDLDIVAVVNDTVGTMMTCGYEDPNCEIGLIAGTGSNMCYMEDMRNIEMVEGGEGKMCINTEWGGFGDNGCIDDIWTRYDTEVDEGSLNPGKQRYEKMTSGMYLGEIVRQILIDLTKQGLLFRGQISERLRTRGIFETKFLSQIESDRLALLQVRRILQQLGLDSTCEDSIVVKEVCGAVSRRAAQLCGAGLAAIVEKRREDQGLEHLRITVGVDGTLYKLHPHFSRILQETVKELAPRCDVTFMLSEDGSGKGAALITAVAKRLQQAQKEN
The assay can be described thus: activation of HKDC1 glucose phosphorylation – biochemical, W721R variant, dose response (AID 504730). It is filed as functional.

For a further assay, the target named is Hexokinase-1 (Homo sapiens, UniProt P19367). The assay can be described thus: HK1 enzyme activation by HKDC1 hits – biochemical, selectivity assay for HKDC1 activator project, dose response (AID 504762). Type of assay: functional.
Sequence of Hexokinase-1 (P19367 whole entry): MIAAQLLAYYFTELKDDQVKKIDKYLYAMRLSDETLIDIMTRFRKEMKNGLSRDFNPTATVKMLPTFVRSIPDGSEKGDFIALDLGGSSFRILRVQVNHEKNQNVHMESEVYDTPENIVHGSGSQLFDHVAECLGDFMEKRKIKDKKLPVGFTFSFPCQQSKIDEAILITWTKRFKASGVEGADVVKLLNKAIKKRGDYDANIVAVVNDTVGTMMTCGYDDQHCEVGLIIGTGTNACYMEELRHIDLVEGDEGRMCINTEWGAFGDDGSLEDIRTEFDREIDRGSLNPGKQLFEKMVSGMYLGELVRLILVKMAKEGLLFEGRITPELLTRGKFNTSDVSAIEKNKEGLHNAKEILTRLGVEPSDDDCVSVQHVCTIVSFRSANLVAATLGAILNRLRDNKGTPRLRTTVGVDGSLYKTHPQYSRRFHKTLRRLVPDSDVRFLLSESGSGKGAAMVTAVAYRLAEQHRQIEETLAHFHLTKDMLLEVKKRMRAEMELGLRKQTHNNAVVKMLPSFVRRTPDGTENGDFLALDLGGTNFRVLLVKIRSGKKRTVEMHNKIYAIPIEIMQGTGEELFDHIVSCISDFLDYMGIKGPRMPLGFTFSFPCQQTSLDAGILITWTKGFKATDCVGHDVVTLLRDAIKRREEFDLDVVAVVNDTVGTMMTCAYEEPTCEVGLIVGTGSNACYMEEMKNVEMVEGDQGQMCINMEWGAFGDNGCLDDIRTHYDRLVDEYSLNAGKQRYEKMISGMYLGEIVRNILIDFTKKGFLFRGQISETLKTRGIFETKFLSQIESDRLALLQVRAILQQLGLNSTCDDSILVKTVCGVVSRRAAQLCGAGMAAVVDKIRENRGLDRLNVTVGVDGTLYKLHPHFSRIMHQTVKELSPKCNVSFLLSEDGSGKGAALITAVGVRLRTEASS
The next assay deals with Nonstructural protein 1 (Influenza A virus, UniProt Q194T2). Type of assay: functional, Influenza A virus (A/California/07/2009(H1N1)).
Sequence of Nonstructural protein 1 (Q194T2 whole entry): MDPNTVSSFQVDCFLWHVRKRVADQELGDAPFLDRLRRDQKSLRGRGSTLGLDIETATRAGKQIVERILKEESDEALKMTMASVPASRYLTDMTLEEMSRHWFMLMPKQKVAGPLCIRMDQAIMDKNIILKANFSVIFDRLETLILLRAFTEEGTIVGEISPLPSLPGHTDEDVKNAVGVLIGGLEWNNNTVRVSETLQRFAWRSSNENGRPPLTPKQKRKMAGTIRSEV
A further assay concerns HEK293. As to the kind of experiment: EBV LMP1 TES2 canonical NF-kB signalling blockers – cell-based, HEK293, luciferase, cherry-pick, dose response (AID 588343). It is filed as functional. Particulars: Homo sapiens.
Assay [4] deals with T3, Runt-related transcription factor 1/Core-binding factor subunit beta (Homo sapiens, UniProt Q01196+Q13951). As to the kind of experiment: Confirmation of compounds inhibiting the binding between the RUNX1 Runt domain and CBFb-SMMHC via a fluorescence resonance energy transfer (FRET) assay. [Related pubchem assays (depositor defined):AID1434, AID1438, AID1496, AID1550, AID1645]. It is filed as protein assay.
T3 sequence (Q01196 whole entry, the tested form may be a part): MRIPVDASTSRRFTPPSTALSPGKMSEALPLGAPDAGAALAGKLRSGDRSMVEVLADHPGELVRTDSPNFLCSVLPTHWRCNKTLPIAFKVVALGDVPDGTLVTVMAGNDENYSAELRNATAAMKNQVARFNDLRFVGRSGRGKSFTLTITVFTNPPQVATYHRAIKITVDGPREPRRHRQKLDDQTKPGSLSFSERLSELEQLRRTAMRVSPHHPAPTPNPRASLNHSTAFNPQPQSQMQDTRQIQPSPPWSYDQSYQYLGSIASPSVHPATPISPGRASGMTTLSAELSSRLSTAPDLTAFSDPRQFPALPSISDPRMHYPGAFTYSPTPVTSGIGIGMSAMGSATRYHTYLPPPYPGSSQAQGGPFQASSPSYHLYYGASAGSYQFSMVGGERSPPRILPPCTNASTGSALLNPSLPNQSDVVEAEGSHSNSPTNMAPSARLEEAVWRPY
T3 sequence (Q13951 whole entry, the tested form may be a part): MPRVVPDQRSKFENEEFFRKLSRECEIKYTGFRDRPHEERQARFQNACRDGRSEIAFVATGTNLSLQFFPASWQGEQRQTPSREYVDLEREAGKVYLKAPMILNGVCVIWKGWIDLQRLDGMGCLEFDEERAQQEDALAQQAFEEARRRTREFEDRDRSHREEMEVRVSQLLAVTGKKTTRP

Assay [5] addresses T3, Runt-related transcription factor 1/Core-binding factor subunit beta. The assay can be described thus: Runt domain/CBFb-SMMHC interaction disruptors – biochemical, TR-FRET (AID 1438). It is filed as protein assay.
The target in assay [6] is T4, Sentrin-specific protease 6 (Homo sapiens, UniProt Q9GZR1).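 Note: Luminescence-based dose-response confirmatory assay of SENP6 inhibition, following up an ultra-high-throughput screen.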
T4 sequence (Q9GZR1 whole entry): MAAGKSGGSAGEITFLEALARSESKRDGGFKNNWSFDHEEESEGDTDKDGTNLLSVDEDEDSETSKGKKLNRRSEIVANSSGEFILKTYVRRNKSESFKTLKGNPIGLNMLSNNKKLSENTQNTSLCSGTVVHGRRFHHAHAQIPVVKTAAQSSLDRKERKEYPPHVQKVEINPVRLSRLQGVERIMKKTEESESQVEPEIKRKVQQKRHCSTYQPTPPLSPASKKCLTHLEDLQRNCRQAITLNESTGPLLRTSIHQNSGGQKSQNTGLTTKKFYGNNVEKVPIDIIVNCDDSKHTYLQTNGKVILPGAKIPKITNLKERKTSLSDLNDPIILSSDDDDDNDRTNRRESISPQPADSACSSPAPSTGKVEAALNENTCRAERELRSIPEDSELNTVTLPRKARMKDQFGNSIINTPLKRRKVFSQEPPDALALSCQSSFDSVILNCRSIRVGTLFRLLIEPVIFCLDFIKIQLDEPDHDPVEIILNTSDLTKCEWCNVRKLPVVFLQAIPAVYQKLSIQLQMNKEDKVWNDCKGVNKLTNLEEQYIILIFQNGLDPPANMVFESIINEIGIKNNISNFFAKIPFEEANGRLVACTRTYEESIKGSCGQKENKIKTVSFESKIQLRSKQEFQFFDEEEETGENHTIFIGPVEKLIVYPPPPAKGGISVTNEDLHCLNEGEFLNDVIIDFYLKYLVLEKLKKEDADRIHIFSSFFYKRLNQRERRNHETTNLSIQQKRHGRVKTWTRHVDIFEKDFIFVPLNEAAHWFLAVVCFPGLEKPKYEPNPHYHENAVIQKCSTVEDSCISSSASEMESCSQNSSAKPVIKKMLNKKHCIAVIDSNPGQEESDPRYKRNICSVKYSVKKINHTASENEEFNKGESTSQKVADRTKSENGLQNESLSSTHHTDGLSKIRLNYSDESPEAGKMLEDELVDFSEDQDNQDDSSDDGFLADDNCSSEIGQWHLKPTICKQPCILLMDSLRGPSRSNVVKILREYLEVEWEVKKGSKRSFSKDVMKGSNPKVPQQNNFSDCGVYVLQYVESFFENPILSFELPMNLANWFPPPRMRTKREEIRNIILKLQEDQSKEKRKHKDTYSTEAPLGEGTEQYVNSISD
It is filed as functional.

The target in assay [7] is T5, Sentrin-specific protease 8 (Homo sapiens, UniProt Q96LD8).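 Note: luminescence read-out of SENP8 inhibition, dose-response confirmation following an ultra-high-throughput screen.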
T5 sequence (Q96LD8 whole entry): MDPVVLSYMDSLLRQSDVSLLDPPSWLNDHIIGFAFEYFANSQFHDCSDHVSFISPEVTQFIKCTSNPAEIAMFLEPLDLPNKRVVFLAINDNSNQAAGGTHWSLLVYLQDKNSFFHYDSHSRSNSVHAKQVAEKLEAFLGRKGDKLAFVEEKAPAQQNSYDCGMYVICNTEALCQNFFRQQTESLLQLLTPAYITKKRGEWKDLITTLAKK
Type of assay: functional.

In assay [8] the target is T6, Sentrin-specific protease 7 (Homo sapiens, UniProt Q9BQF6).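 Note: Luminescence-based dose-response confirmation of ultra-high-throughput screening hits, measuring inhibition of SENP7.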
T6 sequence (Q9BQF6 whole entry): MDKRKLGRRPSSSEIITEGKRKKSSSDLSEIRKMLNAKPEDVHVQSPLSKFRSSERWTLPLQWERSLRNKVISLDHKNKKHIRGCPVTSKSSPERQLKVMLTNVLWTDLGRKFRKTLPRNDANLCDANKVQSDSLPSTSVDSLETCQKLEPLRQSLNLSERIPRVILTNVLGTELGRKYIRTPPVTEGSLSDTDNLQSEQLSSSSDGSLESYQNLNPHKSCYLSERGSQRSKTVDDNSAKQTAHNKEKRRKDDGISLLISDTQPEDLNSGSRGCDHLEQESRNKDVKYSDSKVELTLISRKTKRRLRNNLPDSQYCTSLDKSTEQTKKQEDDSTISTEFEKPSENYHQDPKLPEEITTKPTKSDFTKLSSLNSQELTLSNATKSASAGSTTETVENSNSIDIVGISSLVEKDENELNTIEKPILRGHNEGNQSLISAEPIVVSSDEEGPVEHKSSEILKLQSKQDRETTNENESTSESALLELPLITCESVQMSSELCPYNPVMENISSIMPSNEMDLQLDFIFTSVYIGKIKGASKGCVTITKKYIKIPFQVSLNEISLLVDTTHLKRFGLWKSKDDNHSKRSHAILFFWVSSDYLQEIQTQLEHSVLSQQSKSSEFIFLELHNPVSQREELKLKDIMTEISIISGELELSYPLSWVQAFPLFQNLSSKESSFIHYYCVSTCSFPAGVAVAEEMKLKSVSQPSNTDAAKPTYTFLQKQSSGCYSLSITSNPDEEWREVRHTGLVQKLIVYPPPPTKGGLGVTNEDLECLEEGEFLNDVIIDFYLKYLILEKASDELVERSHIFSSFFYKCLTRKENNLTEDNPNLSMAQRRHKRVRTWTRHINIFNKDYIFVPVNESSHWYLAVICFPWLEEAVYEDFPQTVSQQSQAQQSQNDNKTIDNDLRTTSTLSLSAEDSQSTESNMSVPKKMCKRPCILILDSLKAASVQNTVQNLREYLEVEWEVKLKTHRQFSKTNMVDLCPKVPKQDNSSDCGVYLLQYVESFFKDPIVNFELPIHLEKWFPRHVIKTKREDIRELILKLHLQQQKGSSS
Type of assay: functional.

For assay [9], the target named is T3, Runt-related transcription factor 1/Core-binding factor subunit beta. The assay can be described thus: disruptors of Runt domain/CBFb-SMMHC interaction – biochemical, FRET, Cerulean-Runt, Venus-CBFb-SMMHC, uHTS, […] (AID 1434). Type of assay: protein assay.
The next assay has as its target T7, Caspase-3 (Homo sapiens, UniProt P42574).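 Note: Dose-response selectivity test against caspase-3 for candidate inhibitors of sentrin-specific proteases (SENPs).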
T7 sequence (P42574 whole entry): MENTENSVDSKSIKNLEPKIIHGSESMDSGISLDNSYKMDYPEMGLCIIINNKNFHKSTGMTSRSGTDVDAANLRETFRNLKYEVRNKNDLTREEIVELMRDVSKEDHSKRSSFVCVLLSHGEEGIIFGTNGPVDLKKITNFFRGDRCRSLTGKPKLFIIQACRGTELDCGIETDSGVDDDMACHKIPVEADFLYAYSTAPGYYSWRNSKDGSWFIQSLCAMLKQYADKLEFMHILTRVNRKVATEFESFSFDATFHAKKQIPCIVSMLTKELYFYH
It is filed as functional.

T1 sequence (P37231 whole entry): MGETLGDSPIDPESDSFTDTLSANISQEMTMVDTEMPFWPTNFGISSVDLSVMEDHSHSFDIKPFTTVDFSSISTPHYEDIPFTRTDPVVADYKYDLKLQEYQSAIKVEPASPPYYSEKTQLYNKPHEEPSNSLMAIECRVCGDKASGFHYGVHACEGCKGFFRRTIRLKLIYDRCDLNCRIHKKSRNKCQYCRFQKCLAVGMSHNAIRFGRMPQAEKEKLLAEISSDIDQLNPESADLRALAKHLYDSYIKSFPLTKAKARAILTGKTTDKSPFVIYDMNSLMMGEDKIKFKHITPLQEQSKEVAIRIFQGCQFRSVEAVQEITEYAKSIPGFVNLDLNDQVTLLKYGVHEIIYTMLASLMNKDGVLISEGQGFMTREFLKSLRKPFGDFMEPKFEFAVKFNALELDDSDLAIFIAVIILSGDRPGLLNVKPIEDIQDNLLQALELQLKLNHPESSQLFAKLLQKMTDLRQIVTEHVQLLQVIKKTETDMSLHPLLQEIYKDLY
Sequence of Peroxisome proliferator-activated receptor alpha (Q07869 whole entry): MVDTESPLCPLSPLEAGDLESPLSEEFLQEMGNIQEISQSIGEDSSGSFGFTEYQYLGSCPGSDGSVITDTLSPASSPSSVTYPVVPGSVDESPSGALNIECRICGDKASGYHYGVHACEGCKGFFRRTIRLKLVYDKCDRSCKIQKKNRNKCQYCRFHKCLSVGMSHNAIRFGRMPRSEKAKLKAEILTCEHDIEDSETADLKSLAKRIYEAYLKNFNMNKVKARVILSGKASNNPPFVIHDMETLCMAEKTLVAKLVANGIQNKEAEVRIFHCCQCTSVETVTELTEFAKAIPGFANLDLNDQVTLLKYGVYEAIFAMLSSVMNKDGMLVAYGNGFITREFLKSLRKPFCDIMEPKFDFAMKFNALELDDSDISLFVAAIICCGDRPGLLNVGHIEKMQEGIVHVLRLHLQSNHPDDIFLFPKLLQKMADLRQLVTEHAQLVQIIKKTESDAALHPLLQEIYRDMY

The EC50 is the concentration needed to bring the measured effect to its halfway point. For orientation: IC50 means the concentration that inhibits the measured activity by half. As to `O=C(O)CCN1C(=O)/C(=C/c2ccc(F)cc2F)SC1=S`, the EC50 was 1.5 µM (active) in assay [1] and 0.057 µM (active) in assay [3]. For the same compound, the half-inhibitory concentration (IC50) in [2] is 2.5 µM (active).
The term AC50 denotes the concentration at which the activity in the assay is half-maximal. Take `CC(=NNC(=S)N1CC2CCC(CC2)C1)c1nccs1`: the concentration for a half-maximal effect (EC50) was 1.83 µM (active) on Hexokinase HKDC1 and > 80 µM (inactive) at Hexokinase-1. The IC50 at Nonstructural protein 1 is 13 µM (active). In addition, in the assay on HEK293, the AC50 is 0.539 µM (active).
Turning to `O=S(=O)(Nc1ccc(-c2nc3cccnc3s2)cc1)c1ccc(Cl)s1`, the IC50 in assay [4] is 1.87 µM (active); in assay [5], 24 µM (active); in [6] it was 25 µM (active); in [7] it was 29.1 µM (active); in assay [8], 18.8 µM (active); in assay [9] it was 5.46 µM (active). Besides, the IC50 on Caspase-3 is 31.2 µM (active).
